According to patent US20140093884A1, “Process for Identifying Novel Anti-Inflammatory Molecules with Reduced Direct Transrepression of Genes Induced by Glucocorticoids” (UNIVERSITE DE STRASBOURG, priority 2011, published 2014):

Tests used:
GR binding to IR nGREs = biological target: T1, GR binding to IR nGREs (Homo sapiens, UniProt P04150); assay: ChIP assay of GR binding to IR0 to IR5 nGRE reporter plasmids in A549 cells; format: cell-based; details: upon FA addition
T1 construct: GR-expressing cells are in vitro cultured cells, preferably human lung epithelial carcinoma cells A549; endogenous in cells; host or cells: A549 (CCL-185, ATCC)
T1 sequence (P04150 1-777): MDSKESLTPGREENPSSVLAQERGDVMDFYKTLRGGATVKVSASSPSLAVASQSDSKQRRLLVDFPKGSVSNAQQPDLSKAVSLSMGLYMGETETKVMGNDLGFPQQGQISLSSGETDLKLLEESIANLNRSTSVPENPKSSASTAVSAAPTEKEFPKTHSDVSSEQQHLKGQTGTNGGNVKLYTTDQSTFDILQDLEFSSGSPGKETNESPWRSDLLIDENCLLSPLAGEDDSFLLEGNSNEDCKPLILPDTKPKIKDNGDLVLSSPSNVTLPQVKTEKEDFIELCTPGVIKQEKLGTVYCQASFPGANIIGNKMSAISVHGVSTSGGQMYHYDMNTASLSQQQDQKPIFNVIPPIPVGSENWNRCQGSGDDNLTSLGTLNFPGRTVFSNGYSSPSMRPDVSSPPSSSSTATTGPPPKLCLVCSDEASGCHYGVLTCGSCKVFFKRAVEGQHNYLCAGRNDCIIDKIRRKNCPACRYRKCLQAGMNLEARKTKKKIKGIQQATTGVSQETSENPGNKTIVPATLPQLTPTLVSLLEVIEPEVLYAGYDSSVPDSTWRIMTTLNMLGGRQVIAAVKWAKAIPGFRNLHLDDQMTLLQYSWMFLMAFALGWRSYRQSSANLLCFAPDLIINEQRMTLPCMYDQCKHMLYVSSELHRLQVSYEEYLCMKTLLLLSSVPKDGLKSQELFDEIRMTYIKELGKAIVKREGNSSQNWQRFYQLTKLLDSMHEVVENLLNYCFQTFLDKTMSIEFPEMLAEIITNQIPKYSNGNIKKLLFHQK
Procedure: For ChIP assays to test GR and cofactor binding to the nGRE, +GRE or NFκB region of various luciferase reporter plasmids, ˜60% confluent A549 cells in 100 mm TC dish were transfected with 2 μg of respective plasmids using fugene 6 reagent (Roche) and maintained in charcoal treated FCS containing medium. 44 hours post-transfection, 500 nM FA or Dex or RU24858 and/or 5 μM RU486, 5 ng/ml IL-1β (final conc.) was added to the medium for 2 hours, followed by formaldehyde treatment and processing as described above.
To investigate whether the 1 bp spacer between the inverted repeated motifs of TSLP IR1 nGRE was critical for its repressing function, pGL3-based luciferase plasmids containing the VDRE and TSLP nGRE motifs spaced by 0 to 5 bases (IR0 to IR5 nGREs) were transfected into A549 cells.

[1] = system: GPX3 (glutathione peroxidase 3) gene, (+)GRE; assay: GPX3 transcript levels in mouse ear epidermis after topical treatment (Q-RT-PCR); format: in vivo; details: WT mice, ears, topical FA, FIG. 10
Text: Mice. […] Real time PCR. Total RNA was reverse transcribed using hexamers, followed by Q-PCR, as reported (Li et al., 2005). The GC agonist fluocinolone acetonide (FA) was applied to ears of mice concomitantly treated with the “low-calcemic” Vitamin D3 (VitD3) analog MC903 (Calcipotriol; hereafter called MC) to trigger TSLP expression (Li et al., 2006). […] As expected, the expression of the GC-inducible GPX3 (glutathione peroxidase 3) gene which harbours a (+)GRE (Tuckermann et al., 1999) was enhanced by FA (FIG. 10) and inhibited by RU co-treatment, while FA or RU had no effect on MC-dependent expression of the CYP24A1 gene (a VitD3 target) (FIG. 10).

TSLP = assay: Nuclear run-on assay of TSLP expression; format: in vivo, mouse
Text: Nuclear run-on, EMSA, 3C and Luciferase assays. Nuclear Run-on and EMSA (Carey and Smale., 2001), 3C (Liu et al., 2005) and Luciferase assays (Promega kit) were as described. […] Although the basal TSLP level was similar in vehicle-treated WT and GR^ep−/− mice, FA blocked MC-induced TSLP expression in WT, but not in GR^ep−/− mice (not shown).

[2] = system: (+)GRE (PGL3(VDRE) (+)GRE luciferase reporter); assay: Luciferase reporter assay in A549 cells, PGL3(VDRE) (+)GRE vector; format: cell-based, human; details: FA
Procedure: Luciferase reporter assay. A549 cells seeded on 24-well tissue culture plates overnight at 70% confluency were transfected with 100 ng pCMV β galactosidase, 200 ng pGL3 reporter plasmids and wherever indicated, with 600 ng pSG5 hVDR plasmid (Green et al., 1988) into each well and maintained in medium containing charcoal treated FCS. 24 hours post-transfection, medium was changed and different compounds were added to it for 6 hours. Final concentrations of the compounds are: FA, 500 nM; Dex or RU24858, 300 nM or 500 nM (wherever 300 nM Dex or RU was used, it is indicated in the figure, in all other cases, 500 nM concentration was used); active vitamin D3, 1 μM; IL-1β, 5 ng/ml; BAY 11-7082, 5 μM, JNK inhibitor II, 25 μM. Luciferase assay was carried out as instructed (Promega). Normalized values are reported as the mean±SEM; each value originates from at least three individual transfections with assays performed in duplicate. […]

GR binding to IR0 nGRE (ChIP) (GR binding to IR nGREs): less efficient
GR binding to IR1 and IR2 nGREs (ChIP) (GR binding to IR nGREs): similarly bound
GR binding to IR3, IR4 and IR5 nGREs (ChIP) (GR binding to IR nGREs): not detectable
expression of GPX3 gene [1]: enhanced
SMILES: CC1(C)O[C@@H]2C[C@H]3[C@@H]4C[C@H](F)C5=CC(=O)C=C[C@]5(C)[C@@]4(F)[C@@H](O)C[C@]3(C)[C@]2(C(=O)CO)O1 [FA, fluocinolone acetonide]
nature of GR-mediated FA inhibition of TSLP expression (TSLP): transcriptional
luciferase expression when IR1 nGRE replaced by a (+)GRE [2]: increase
